Where two headings read alike, the source gives them in different places.
Legend:
[1] = tested on: HIF-1α; experiment: In vitro ubiquitylation assay for HIF-1α; assay type: biochemical, human
Procedure: To test the hypothesis that pVHL is a necessary component of a ubiquitin ligase complex recognising HIF-α we developed an in vitro ubiquitylation assay for HIF-1α. In this assay, cell extracts (initially from Cos-7) were incubated with [^35S]labelled HIF-1α prepared in vitro in reticulocyte lysates. This was used as substrate in reactions with different combinations of extract, an ATP-regenerating system, ubiquitin aldehyde, and methylated ubiquitin. Reactions were incubated at 30° C. for 270 minutes before analysis by SDS-PAGE.
Incubation with extract alone converted the HIF-1α substrate to a slower migrating form, an effect which was enhanced by an ATP-regenerating system, and was prevented by addition of the protein kinase inhibitor 2-aminopurine. […] This assignment was confirmed by enhancement with addition of ubiquitin aldehyde, an isopeptidase inhibitor that prevents the breakdown of ubiquitin conjugates.
An experiment similar to that of section (h) above was performed but with the omission of ubiquitin aldehyde. pVHL was generated by in vitro transcription translation, and HIF-1α was also generated in reticulocyte lysate in the presence or absence of 100 μM Fe2+ and Fe3+. […] Thus assays of the invention may be used for the identification of compounds acting at a point distal to the HIF-pVHL interaction (i.e. not altering binding but interfering with tagging or destruction). It also provides further evidence for modifications of HIF influencing its ability to bind pVHL. […]
In vitro ubiquitylation assay. […] Aliquots were removed at indicated times, mixed with SDS sample buffer and analysed by SDS-PAGE and autoradiography. Gels were quantitated using a Storm 840 PhosphorImager (Molecular Dynamics).

[2] = target: pVHL/HIF-1 complex (Homo sapiens, UniProt P40337+Q16665); experiment: EMSA / anti-pVHL supershift of the HIF-1 DNA binding complex from treated RCC4/VHL cells; settings: for HIF-1 complex species seen in EMSA: RCC4/VHL cells cultured four hours, 100 μM
[3] = tested on: pVHL interaction with HIF-1α and HIF-2α; experiment: Anti-pVHL immunoprecipitation of RCC4/VHL cell extracts, immunoblot for HIF α subunits; settings: treated RCC4/VHL cells, compared with hypoxic cells
[4] = target: pVHL-HIF-1α interaction (Homo sapiens, UniProt P40337+Q16665); experiment: pVHL interaction with HIF-1α sequences translated in reticulocyte lysate in the presence of metal ions; assay type: binding
[5] = tested on: pVHL-HIF-1α interaction; experiment: as above; assay type: binding, human; settings: subsequences 556-574, 549-574, 556-582, 549-582; 100 μM Fe2+ and 100 μM Fe3+
[6] = full HIF-1α, 100 μM ion during translation

| Molecule | HIF-1 complex species seen in EMSA [2] | HIF-1α and HIF-2α contained in anti-pVHL immunoprecipitates [3] | interaction of pVHL with HIF-1α translated in the presence of the ion [4, 6] | also measured |
| --- | --- | --- | --- | --- |
| Nc1ncc2[nH]cnc2n1 [2-aminopurine] |  |  |  | conversion of HIF-1α substrate to a slower migrating form (phosphorylation) ([1]; Cos-7 cell extract, 30° C.): prevented |
| CC(=O)N(O)CCCCCNC(=O)CCC(=O)N(O)CCCCCNC(=O)CCC(=O)N(O)CCCCCN [desferrioxamine] | only the faster mobility HIF-1 complex | neither protein was contained |  | pVHL/HIF-1 complex forming ([2]; treatment four hours prior to hypoxia): prevented |
| [Cl-].[Cl-].[Co+2] [cobalt, cobaltous chloride] | only the faster mobility HIF-1 complex | neither protein was contained | diminishes |  |
| [Ni+2] [nickel] |  |  |  | interaction of pVHL with HIF-1α translated in the presence of the ion [4]: diminishes |
| ubiquitin aldehyde |  |  |  | generation of high molecular weight polyubiquitylated HIF-1α species ([1]; Cos-7 cell extract, 30° C., 270 minutes): enhancement |
| iron |  |  | enhances | amount of interaction of pVHL with HIF-1 subsequences [5]: substantial increase; ubiquitylation of HIF-1α produced in the presence of the ions ([1]; HIF-1α generated in reticulocyte lysate with 100 μM Fe2+ and Fe3+, ubiquitin aldehyde omitted): Enhanced ubiquitylation |

— patent US7709600B2, “Interaction between the VHL tumor suppressor and hypoxia inducible factor, and assay methods relating thereto” (Isis Innovation Limited, priority 1999, dated 2010)
